Values quoted from earlier work in patent US20070287651A1, “Bleaching compositions” (The Procter & Gamble Company, priority 2006, published 2007).

Conditions: deionized water at 25° C. (definition)

solubility in water: lower than 1 gram per liter
SMILES: c1ccc2oc(-c3ccc(-c4nc5ccccc5o4)s3)nc2c1 [Tinopal SOP, benzoxazole,2,2′-(thiophenaldyl)bis]
